Values quoted from earlier work as cited in US20230226011A1, “Novel Pharmaceutical Composition Comprising Combination of Olopatadine and Nepafenac” (Zenvision Pharma LLP, priority 2020, published 2023).
Structures can show the parent of a compound that is named as a salt.

Conditions: for solubility in water: solvent water

solubility in water | solubility in chloroform (solvent chloroform) | solubility in methanol (solvent methanol) | Structure (SMILES)
practically insoluble |  |  | NC(=O)Cc1cccc(C(=O)c2ccccc2)c1N [Nepafenac, 2-amino-3-benzoylbenzeneacetamide]
sparingly soluble | insoluble | sparingly soluble | CN(C)CC/C=C1/c2ccccc2COc2ccc(CC(=O)O)cc21 [Olopatadine hydrochloride, 11-[(Z)-3(Dimethylamino)propylidene]-6-11-dihydrodibenz[b,e] oxepin-2-acetic acid, hydrochloride]
